The target of series [1] is T1, Short transient receptor potential channel 5 (Homo sapiens, UniProt Q9UL62).
T1 sequence (Q9UL62 whole entry): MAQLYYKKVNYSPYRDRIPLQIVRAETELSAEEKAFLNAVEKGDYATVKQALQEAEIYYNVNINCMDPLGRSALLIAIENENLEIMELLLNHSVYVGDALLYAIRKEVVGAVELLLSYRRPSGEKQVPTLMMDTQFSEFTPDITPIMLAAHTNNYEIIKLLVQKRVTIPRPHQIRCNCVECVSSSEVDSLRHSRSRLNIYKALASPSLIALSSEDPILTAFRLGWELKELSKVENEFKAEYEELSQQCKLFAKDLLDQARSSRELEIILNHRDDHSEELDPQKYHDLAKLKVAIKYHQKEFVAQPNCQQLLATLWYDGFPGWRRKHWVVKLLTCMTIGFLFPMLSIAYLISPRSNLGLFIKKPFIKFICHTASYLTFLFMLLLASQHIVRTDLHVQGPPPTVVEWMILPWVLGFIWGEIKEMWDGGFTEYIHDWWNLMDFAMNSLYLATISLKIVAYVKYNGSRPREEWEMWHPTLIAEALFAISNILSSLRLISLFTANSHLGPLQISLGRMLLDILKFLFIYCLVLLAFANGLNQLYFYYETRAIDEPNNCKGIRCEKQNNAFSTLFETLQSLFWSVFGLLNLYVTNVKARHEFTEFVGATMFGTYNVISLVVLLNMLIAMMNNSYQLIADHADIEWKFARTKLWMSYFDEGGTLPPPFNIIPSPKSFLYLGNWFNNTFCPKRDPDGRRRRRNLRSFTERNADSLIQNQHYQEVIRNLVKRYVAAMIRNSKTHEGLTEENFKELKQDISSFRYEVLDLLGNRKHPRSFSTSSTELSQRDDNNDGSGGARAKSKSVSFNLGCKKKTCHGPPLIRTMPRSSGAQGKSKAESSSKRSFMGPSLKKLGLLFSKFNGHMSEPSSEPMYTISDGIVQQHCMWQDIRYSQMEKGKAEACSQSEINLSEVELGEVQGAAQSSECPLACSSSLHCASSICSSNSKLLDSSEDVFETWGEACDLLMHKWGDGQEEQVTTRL
Nature of the series: Antagonist activity at human TRPC5 stably expressed in HEK293 cells inhibition of calcium influx by calcium fluorescence assay. It is filed as cell-based.

Series [2] has as its target T2, Short transient receptor potential channel 6 (Mus musculus, UniProt Q61143).
T2 sequence (Q61143 whole entry): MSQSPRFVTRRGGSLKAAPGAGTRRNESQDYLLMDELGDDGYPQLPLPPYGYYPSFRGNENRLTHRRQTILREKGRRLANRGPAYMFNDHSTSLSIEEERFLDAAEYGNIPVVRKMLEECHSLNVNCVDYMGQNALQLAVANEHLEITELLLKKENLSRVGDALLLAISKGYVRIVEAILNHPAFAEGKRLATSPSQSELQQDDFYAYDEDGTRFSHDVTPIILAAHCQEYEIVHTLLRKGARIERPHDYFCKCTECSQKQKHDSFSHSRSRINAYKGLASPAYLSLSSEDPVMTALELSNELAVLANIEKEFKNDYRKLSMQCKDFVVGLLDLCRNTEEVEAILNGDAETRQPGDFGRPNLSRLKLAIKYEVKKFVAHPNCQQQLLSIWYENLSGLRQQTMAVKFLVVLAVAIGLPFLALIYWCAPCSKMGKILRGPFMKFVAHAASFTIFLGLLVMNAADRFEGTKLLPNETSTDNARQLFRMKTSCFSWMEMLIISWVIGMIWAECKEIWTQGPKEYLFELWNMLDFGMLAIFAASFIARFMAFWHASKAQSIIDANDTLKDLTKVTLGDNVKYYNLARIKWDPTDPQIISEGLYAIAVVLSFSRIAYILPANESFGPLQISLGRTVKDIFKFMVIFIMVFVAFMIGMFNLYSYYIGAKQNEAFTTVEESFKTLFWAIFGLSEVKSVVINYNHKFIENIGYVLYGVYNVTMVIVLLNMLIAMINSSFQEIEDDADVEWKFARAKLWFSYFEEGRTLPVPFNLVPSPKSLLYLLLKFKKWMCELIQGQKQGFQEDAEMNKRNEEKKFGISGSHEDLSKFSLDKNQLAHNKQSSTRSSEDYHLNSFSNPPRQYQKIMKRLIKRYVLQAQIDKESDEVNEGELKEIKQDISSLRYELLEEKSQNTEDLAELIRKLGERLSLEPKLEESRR
Nature of the series: Antagonist activity at mouse TRPC6 stably expressed in HEK293 cells inhibition of calcium influx by calcium fluorescence assay. It is filed as cell-based.

Series [3] addresses T3, Short transient receptor potential channel 7 (Homo sapiens, UniProt Q9HCX4).
T3 sequence (Q9HCX4 whole entry): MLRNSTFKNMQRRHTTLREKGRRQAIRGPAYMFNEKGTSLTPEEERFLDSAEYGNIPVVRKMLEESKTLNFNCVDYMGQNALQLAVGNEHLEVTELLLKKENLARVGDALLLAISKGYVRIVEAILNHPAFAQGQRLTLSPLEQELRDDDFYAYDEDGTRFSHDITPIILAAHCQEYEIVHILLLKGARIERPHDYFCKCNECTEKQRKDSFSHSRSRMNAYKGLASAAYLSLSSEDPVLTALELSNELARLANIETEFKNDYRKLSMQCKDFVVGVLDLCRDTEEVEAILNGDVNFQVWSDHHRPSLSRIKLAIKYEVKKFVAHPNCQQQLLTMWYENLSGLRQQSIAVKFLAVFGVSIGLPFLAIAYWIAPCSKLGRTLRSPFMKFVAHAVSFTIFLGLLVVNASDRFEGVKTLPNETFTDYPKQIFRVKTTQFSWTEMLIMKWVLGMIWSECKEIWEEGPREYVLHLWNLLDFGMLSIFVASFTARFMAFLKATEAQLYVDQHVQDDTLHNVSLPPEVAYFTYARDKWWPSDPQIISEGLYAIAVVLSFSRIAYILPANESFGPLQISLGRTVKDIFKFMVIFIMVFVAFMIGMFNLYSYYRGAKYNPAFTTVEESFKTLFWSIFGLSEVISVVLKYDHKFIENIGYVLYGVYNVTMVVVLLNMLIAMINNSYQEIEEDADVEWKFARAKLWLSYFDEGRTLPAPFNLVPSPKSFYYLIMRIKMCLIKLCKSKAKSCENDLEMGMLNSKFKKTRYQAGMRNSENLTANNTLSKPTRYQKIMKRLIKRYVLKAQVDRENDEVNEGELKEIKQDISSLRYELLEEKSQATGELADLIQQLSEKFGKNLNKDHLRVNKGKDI
Nature of the series: Antagonist activity at human TRPC7 stably expressed in HEK293 cells inhibition of calcium influx by calcium fluorescence assay. In kind it is cell-based.

The subject of a further series is MKN-45. Nature of the series: Antiproliferative activity against human MKN-45 cells assessed as reduction in cell viability incubated for 72 hrs by MTT assay. It is filed as functional, cell-based. The note with it: MKN-45, 72 h.
Series [4] in a line: Tmax in BALB/c mouse at 50 mg/kg, ip administered as liposome encapsulated form and measured upto 24 hrs by LC-MS/MS analysis. In kind it is ADME, organism-based. The settings on record: in vivo.
Series [5] is described as follows: AUC (0 to infinity) in BALB/c mouse at 50 mg/kg, ip administered as liposome encapsulated form and measured upto 24 hrs by LC-MS/MS analysis. It is filed as ADME, organism-based. The settings on record: in vivo.

Usually IC50 stands for the concentration that inhibits the measured activity by half. One may read the Tmax as the time from dosing to the highest level. As a reminder, the AUC(0-inf) is total exposure, with the tail of the curve extrapolated. Lower therefore signals low exposure.

As to `NCCN(Cc1ccc2ccccc2c1)c1nc(C(=O)Nc2ccc(O)cc2)cs1`, the IC50 came out at 7.6 µM in series [1], 2.9 µM in series [2], 3.4 µM in series [3] and 11 µM in the series on MKN-45. In addition, in series [4], the Tmax was 4 h. This compound displayed an area under the curve AUC(0-inf) in series [5] of 16800 ng·h/mL.

The values above are taken from ChEMBL document CHEMBL5518193, “Discovery of N-alkyl-N-benzyl thiazoles as novel TRPC antagonists for the treatment of glioblastoma multiforme” (Eur J Med Chem, 2024).
